Measurements taken from patent US11965041B2, “N-methylated cyclic peptides and their prodrugs” (TECHNISCHE UNIVERSITAET MUENCHEN, priority 2017, dated 2024).
Numbered stars: 1 amine (or outer) side, 2 acyl side, 3 side chain; on linkers, the order of the positions; unused ones are H or OH. Square brackets hold non-standard residues; d marks the D form. Peptide text beside a SMILES is read from it. X1 = CCCCCCOC(=O)N=C(NCCC[C@@H](N[*:1])C(=O)[*:2])NC(=O)OCCCCCC; NMeV = CN[C@H](C(=O)O)C(C)C; dNMeA = CN[C@H](C)C(=O)O

Tests used:
physchem = conditions: pH 7.4, LogD, pH 7.4, reported value (mean or bound)
[1] = in vivo; cited from earlier work
[2] = Pharmacokinetic study in rats after oral administration; type: in vivo, Wistar rats; conditions: rat
Experimental: In Vivo Studies. Male Wistar rats (Harlan, Israel), 275-300 g in weight, were used for all surgical procedures. Animals were anesthetized for the period of surgery by intraperitoneal injection of 1 mL/kg of ketamine/xylazine solution (9:1), placed on a heated surface, and maintained at 37° C. (Harvard Apparatus Inc., Holliston, MA). An indwelling cannula was placed in the right jugular vein of each animal for systemic blood sampling, by a method described before. The cannula was tunneled beneath the skin and exteriorized at the dorsal part of the neck. After completion of the surgical procedure, the animals were transferred to cages to recover overnight (12-18 h). During this recovery period, food but not water was deprived. Throughout the experiment, free access to food was available 4 h post oral administration. Animals were randomly assigned to the different experimental groups. […] Dispersed 12P SNEDDS (5 mg/kg) was administered to the animals by oral gavage (n=3). Systemic blood samples (0.35 mL) were taken at 5 min predose, 20, 40, 60, 90, 180, 240, and 360 min postdose. To prevent dehydration, equal volumes of physiological solution were administered to the rats following each withdrawal of blood sample. Plasma was separated by centrifugation (5322 g, 10 min) and stored at −20° C. pending analysis. In the 12P pharmacokinetic study, the parent peptide, 12, was analytically determined.
Pharmacokinetic Analysis. The area under the plasma concentration-time curve (AUC) was calculated by using the trapezoidal rule with extrapolation to infinity by dividing the last measured concentration by the elimination rate constant (kel). The elimination rate constant values were determined by a linear regression analysis using the last points on the logarithmic plot of the plasma concentration versus the time curve. Pharmacokinetic parameters, such Tmax, Cmax, clearance (CL), volume of distribution (V), and bioavailability, were calculated using noncompartmental analysis.
Analytical Methods. Plasma or BBMV samples were spiked with metoprolol (1.5 μg/mL) as an internal standard. ACN was added to each sample (2:1) and vortex-mixed for 1 min. The samples were then centrifuged (14 635 g, 10 min), and the supernatant was transferred to fresh glass tubes and evaporated to dryness (Vacuum Evaporation System, Labconco, Kansas City, MO, USA). Then, the glass tubes were reconstituted in 80 μL of mobile phase and centrifuged a second time (14 635 g, 10 min). The amount of the compounds was determined using an HPLC-MS Waters 2695 Separation Module, equipped with a Micromass ZQ detector. The resulting solution was injected (10 μL) into the HPLC system. The system was conditioned as follows: for parent drug peptides (including 12), a Kinetex 2.6 μm HILIC 100 Å, 100 mm×2.1 mm column (Phenomenex, Torrance, CA, USA), an isocratic mobile phase, and an acetonitrile:water:ammonium acetate buffer 50 mM (70:10:20, v/v/v) was used; and for the prodrug peptides (including 12P), a Luna (Phenomenex) 3 μm C8 100 Å, 100 mm×2.0 mm column and an isocratic mobile phase of ACN:water supplemented with 0.1% formic acid (70:30, v/v) and a flow rate of 0.2 mL/min at 25° C. was used. The limit of quantification for all of the peptides and prodrugs was 25 ng/mL.
The pharmacokinetic in-vivo study allows a further evaluation of the prodrug concept in the whole animal. The PK studies were performed in conscious Wistar male rats. An indwelling cannula was implanted in the jugular vein 24 hours before the PK experiment to allow full recovery of the animals from the surgical procedure. Animals (n=4) received either an IV bolus dose or oral dose of the investigated compound. Blood samples (with heparin, 15 U/ml) were collected at several time points for up to 6 hours post administration and was assayed by HPLC-MS method. Non-compartmental pharmacokinetic analysis was performed using WinNonlin software.

[3] = Metabolic stability in rat plasma; type: in vitro ADME; conditions: 37° C., up to 90 minutes
Experimental: The enzymatic reactions were performed as follows: 2 mM stock solutions of the tested compounds were diluted with serum or purified brush border membrane vesicles (BBMVs) solution to a final concentration of 0.5 mM. During incubation at 37° C. samples were taken for a period of 90 minutes. The enzymatic reaction was stopped by adding 1:1 v/v of ice cold acetonitrile and centrifuge (4000 g, 10 min) before analysis. Preparation of BBMVs: The BBMVs was prepared from combined duodenum, jejunum, and upper ileum (male Wistar rats) by a Ca^++ precipitation method. Purification of the BBMVs was assayed using GGT, LAP and alkaline phosphatase as membrane enzyme markers
Peptides 12 and 12p were subjected to rat plasma and followed their degradation. Rat plasma is known to be rich with esterases.

[4] = Pooled Human Liver Microsome assay; type: in vitro ADME
Description: Peptide 12 P was subjected to additional in vitro assay to evaluate the involvement of liver metabolism using the Pooled Human Liver Microsome assay. Liver microsomes are subcellular particles derived from the endoplasmic reticulum of hepatic cells. These microsomes are a rich source of drug metabolizing enzymes, including cytochrome P-450. Microsome pools from various sources are useful in the study of xenobiotic metabolism and drug interactions. […] The presence of ketokonazole inhibits the metabolism by the liver enzymes in some degree. However, Incubating peptide 12P with self-assembling pro-nano lipospheres (PNL), led to much better inhibition of cytochromes P-450.

rat CYP3A4 microsomes = test: Enzymatic inhibition study in isolated rat CYP3A4 microsomes; type: in vitro ADME; conditions: 60 min
CYP3A4 = test: as above; type: in vitro ADME; conditions: rat, pooled rat CYP3A4 microsomes, pH 7.4; with ketoconazole; 60 min; read-out: concentration remaining after incubation, with ketoconazole
[5] = Caco-2 permeability study (Examples 1, 2 and 4, Table 3); type: in vitro ADME, human; conditions: Caco-2, unit inferred; read-out: Caco-2 A-to-B Papp (converted)
Experimental: The culture growth medium consisted of DMEM supplemented with 10% heat-inactivated FBS, 1% MEM-NEAA, 2 mM 1-glutamine, 1 mM sodium pyruvate, 50,000 units Penicillin G Sodium and 50 mg Streptomycin Sulfate (Biological Industries). The medium was replaced every other day.
Cells (passage 55-60) were seeded at density of 25×10^5 cells/cm^2 on untreated culture inserts of polycarbonate membrane with 0.4 μm pores and surface area of 1.1 cm^2. Culture inserts containing Caco-2 monolayer were placed in 12 mm transwell plates (Corning). Culture medium was replaced every other day. Transepithelial Electrical Resistance (TEER) values were measured by Millicell ERS-2 System (Millipore) a week after seeding up to experiment day (21-23 days) to ensure proliferation and differentiation of the cells. When the cells were fully differentiated and TEER values became stable (200-500 Ω·cm^2). The TEER values were compared to control inserts containing only the medium.
The experiment was initiated by replacing the medium from both sides by apical (600 μl) and basolateral (1500 μl) buffers, both warmed to 37° C. The Cells were incubated with the buffers solutions for 30 min at 37° C. on a shaker (100 cycles/min). The apical buffer was replaced by apical buffer containing 10 μg/ml of the cyclic peptides of the invention. 50 μl samples were taken from the apical side immediately at the beginning of the experiment, resulting in 550 μl apical volume during the experiment.
Permeability Coefficient (Papp) for each compound was calculated from the linear plot of drug accumulated versus time, using the following equation:
Where dq/dt is steady state appearance rate of the compound on the receiver side, Co is the initial concentration of the drug on the donor side, and A is the exposed tissue surface area (1.1 cm^2).
Transport studies were performed through the Caco-2 monolayer mounted in an Ussing-type chamber set-up with continuous trans-epithelial electrical resistance (TEER) measurements to assure TEER between 800 and 1200 Sr cm^2. HBSS supplemented with 10 mM MES and adjusted to pH 6.5 were used as transport medium in the donor compartment and pH 7.4 in the acceptor compartment. The donor solution contained the test compound.
Permeability mechanism of compounds is studied by evaluating the Papp of a compound from the apical to the basolateral (A-to-B) membrane and its Papp from the basolateral to the apical membrane (B-to-A). The A-to-B assay simulates passive and transporter-mediated permeability. The B-to-A assay is essential complementary experiment indicative of the activity of P-gp. The ratio of the A-to-B and B-to A Papps (efflux ratio) is calculated to determine the permeability mechanism.

[6] = oral 5 mg/kg, peptide 12 measured in plasma, 12P given as dispersed 12P SNEDDS

| Compound | logD at 1 h (physchem) | half live in man [1] | permeability in the PAMPA-GIT model system | Papp (AB), replicate 1 (Caco-2 cells) | relative bioavailability vs peptide 12 ([2]; after oral administration) | AUC [2, 6] | Cmax [2, 6] | F [2, 6] | Kel [2, 6] | Tmax, Median (range) [2, 6] | metabolic stability in rat plasma, in words [3] | metabolism by Pooled Human Liver Microsomes, in words [4] | concentration remaining after incubation, alone (rat CYP3A4 microsomes; 12P alone) | concentration remaining after incubation, with SNEDDS (rat CYP3A4 microsomes; dispersed 12P SNEDDS) | remaining at 1 h, 1 µM (CYP3A4) | Papp A→B [5] |
| --- | --- | --- | --- | --- | --- | --- | --- | --- | --- | --- | --- | --- | --- | --- | --- | --- |
| CC(C)[C@H]1C(=O)N[C@@H](CCCN=C(N)N)C(=O)NCC(=O)N[C@@H](CC(=O)O)C(=O)N[C@H](Cc2ccccc2)C(=O)N1C [Cilengitide, cyclo(RGDf-(NMe)V)] | < -1 | 4 h | low permeability |  |  |  |  |  |  |  |  |  |  |  |  |  |
| CCCCCCOC(=O)N=C(NCCC[C@H]1NC(=O)[C@H](C(C)C)N(C)C(=O)[C@@H](C)N(C)C(=O)[C@@H](C)NC(=O)[C@@H](CC(=O)OC)NC(=O)CNC1=O)NC(=O)OCCCCCC [#29P*] (cyclo(G[dD](OMe)[dA][dNMeA][NMeV][X1])) |  |  | > -5 | 0.1 10^−6 cm/s |  |  |  |  |  |  |  |  |  |  |  |  |
| CCCCCCOC(=O)N=C(NCCC[C@@H]1NC(=O)[C@@H](C)N(C)C(=O)[C@H](C)N(C)C(=O)[C@H](C)NC(=O)[C@H](CC(=O)OC)NC(=O)CNC1=O)NC(=O)OCCCCCC [Peptide 12P, c(*aR(Hoc)2GD(OMe)A*A)] |  |  |  |  | about 70 fold | 216.9 ± 75.6 µg·min/mL | 1993 ± 967 ng/mL | 43.8 ± 14.9% | 0.009 ± 0.0001 min⁻¹ | 20 (20-60) min | degraded | substrate for P-gp efflux system and cytochromes P-450 | 14.0±4.06% | 102.2±19.7% | 67 ± 3.61% | 0.785 ×10⁻⁶ cm/s |
